Source: patent US10913933B2, “Bioengineered liver constructs and methods relating thereto” (Wake Forest University Health Sciences, priority 2013, dated 2021)

Tested on: bioengineered liver organoids
Conditions: human, 48 h
Protocol: For hepatocyte functional analysis, culture medium was collected after the three week incubation. The media was stored at −80° C. until it was used for analysis. For analyzing albumin synthesis, albumin ELISA assay (Bethyl Laboratories Inc.) was carried out on each samples in triplicates. The albumin concentrations were normalized per mg of DNA. The media was also analyzed in the same fashion for urea secretion using a Quantichrome™ Urea Assay Kit (BioAssay Systems, Inc.). […] After 48 hours, media samples were collected and analyzed by mass spectrometry (FIGS. 3C and 3D), and compared with standards of individual metabolites (FIGS. 3A and 3B).
In a second experiment, the liver organoids were prepared as described above in Example 1, Section A using LPC seeding and maintenance media. Alternatively, the organoids can be prepared using minimal LPC medium or hFLP medium instead. After seeding with hFLPCs, the discs were cultured for 3 weeks, with harvesting of cells at 1 week and 3 weeks for immunohistochemical and molecular analysis. Assays assessing albumin and urea synthesis and IHC analyses were performed as described above. Gene expression analyses were performed by RT-PCR after harvesting the organoids. Drug metabolism activity in the organoids was assessed after 1 week and 3 weeks of culturing. […] After 3, 6, 12, and 24 hours, media samples were collected and analyzed by mass spectrometry.

CCOc1ccc2ccc(=O)oc2c1 [7-ethoxycoumarin]
Phase-1 metabolites found in media: 7-hydroxycoumarin
